Where two headings read alike, the source gives them in different places.
Legend:
[1] = test system: HCV genotype 1b luciferase reporter replicon; test: microbe, parasite or virus in culture; assay type: cell-based
[2] = Cytotoxicity by XTT staining in replicon cells; details: human
Procedure, shortened: (§1)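 Cells cultured 24 h, then exposed 72 h to six half-log dilutions (top 100.0 or 1.0 μM) in triplicate, with interferon-alpha2b reference and medium-only controls. Viability read by XTT staining on a parallel plate; TC50 derived from concentration-response.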

Huh-7 luc/neo ET cells = test: Cytotoxicity by XTT staining in replicon cells; details: read-out: HCV Replicon CC50; XTT, 72 hours
Procedure, shortened: as §1

[3] = test system: HCV Genotype 3a-1, NS5B Mutation none; test: microbe, parasite or virus in culture; assay type: cell-based
Procedure: (§2) Various patient-derived HCV genotypes containing wild-type and resistance-associated variants were used to determine their relative replication sensitivity to test compounds. Replicon resistance test vectors (RTVs) containing the NS5B genomic regions were prepared using viral RNA isolated from plasma of HCV patients. Each NS5B region was amplified by reverse-transcription polymerase chain reaction and cloned into an HCV replicon RTV which was then transferred by electroporation into Huh-7 cells.

[4] = test system: HCV Genotype 1b, NS5B Mutation none; test: microbe, parasite or virus in culture; assay type: cell-based
Procedure: as §2

[5] = test system: HCV Genotype 1b, NS5B Mutation C316N; test: microbe, parasite or virus in culture; assay type: cell-based
Procedure: as §2

[6] = test system: HCV Genotype 1a, NS5B Mutation L159F; test: microbe, parasite or virus in culture; assay type: cell-based
Procedure: as §2

[7] = test system: HCV Genotype 1a, NS5B Mutation L159F and S282T; test: microbe, parasite or virus in culture; assay type: cell-based
Procedure: as §2

[8] = test system: HCV Genotype 2b, NS5B Mutation none; test: microbe, parasite or virus in culture; assay type: cell-based
Procedure: as §2

[9] = test system: HCV Genotype 3a-2, NS5B Mutation none; test: microbe, parasite or virus in culture; assay type: cell-based
Procedure: as §2

[10] = test system: HCV Genotype 4d, NS5B Mutation none; test: microbe, parasite or virus in culture; assay type: cell-based
Procedure: as §2

[11] = test system: HCV Genotype 2a, NS5B Mutation none; test: microbe, parasite or virus in culture; assay type: cell-based
Procedure: as §2

[12] = test system: HCV Genotype 4a, NS5B Mutation none; test: microbe, parasite or virus in culture; assay type: cell-based
Procedure: as §2

[13] = test system: HCV Genotype 1a, NS5B Mutation none; test: microbe, parasite or virus in culture; assay type: cell-based
Procedure: as §2

[14] = test system: HCV genotype 1b luciferase reporter replicon; test: microbe, parasite or virus in culture; assay type: cell-based; details: Hepatitis C virus, HuH-7-Luc/Neo-ET, 72 h, read-out: HCV Replicon EC50/EC95: EC50
human hepatocytes = test: Metabolic studies in primary hepatocytes; assay type: in vitro ADME; details: 10 μM, 2-24 hr
Procedure: The metabolism of compounds 25, 27 and 5-2, at a concentration of 10 μM, were investigated in fresh primary cultures of human, dog and mouse hepatocytes. Plated hepatocytes from humans (XenoTech, mixed gender, pooled from 10 donors), male Beagle dog (BioreclamationIVT), and male ICR/CD-1 mice (BioreclamationIVT, 8 donors) in 6-well plates with matrigel overlay were incubated in singlet with 10 μM TA. After 2, 4, 6, 8 or 24 hr, intracellular levels of nucleotide prodrugs and their potential metabolites (prodrugs, monophosphates, triphosphates and nucleosides) were quantitated by LC-MS/MS. Concentrations below the lower limit of quantitation (1.5 pmol/10^6 cells for prodrugs, monophosphates and nucleosides and 12 pmol/10^6 cells for triphosphates) were extrapolated from the standard curves.

HCV S282T replicon = test: microbe, parasite or virus in culture; assay type: cell-based
Procedure: A transient transfection assay was performed to determine the sensitivity of the […] of HCV to test compounds. Huh-7 cells were electroporated in the presence of RNA transcribed from wild type or S282T HCV replicon plasmids from the T7 promoter. The transfected cells were seeded in to 96-well plates at 7.5×10^3 cells per well in Dulbecco's Modified Eagle's medium. After 24 hr of incubation, medium was removed and replaced with fresh medium containing no or various concentrations of test compounds. Following an additional 96-hr incubation, the anti-HCV activity was measured by luciferase endpoint with Britelite™ Plus luminescence reporter gene kit (Perkin Elmer, Shelton, CT). Duplicate plates were treated and incubated in parallel for assessment of cellular toxicity by staining with the tetrazolium dye XTT.

[15] = Hepatitis C virus, read-out: IC50 Value
[16] = genotype 3a-1, no NS5B mutation
[17] = genotype 1a, NS5B L159F and S282T
[18] = genotype 3a-2, no NS5B mutation
[19] = Hepatitis C virus, 96 h, read-out: IC50 Value

Compound: CC(C)OC(=O)[C@H](C)N[P@](=O)(OCC1O[C@@H](n2cnc3c(N(C)C4CC4)nc(N)nc32)[C@](C)(F)[C@@H]1O)Oc1ccccc1 (stereo partly drawn) [Compound 27, isopropyl ((((S)-(2R,3R,4R,5R)-5-(2-amino-6-(methylcyclopropanamino)-9H-purin-9-yl)-4-fluoro-3-hydroxy-4-methyltetrahydrofuran-2-yl)methoxy)-phenoxy-phosphoryl)-L-alaninate]
- EC50 ([1]; Hepatitis C virus, read-out: EC50 in a replicon assay): 5 nM
- EC95 ([1]; Hepatitis C virus, Huh-7 luc/neo ET cells, 72 hours, luciferase, read-out: HCV Replicon EC50/EC95: EC95): 25 nM
- Fold increase in activity compared to parent nucleoside ([1]; Table 7): >1,100
- CC50 at 72 h [2]: > 100000 nM
- CC50 (Huh-7 luc/neo ET cells): > 100000 nM
- IC50 [3, 15]: 4.4 nM
- Fold Change in IC50 from Sofosbuvir [3, 16]: 28.4
- Fold Change in IC95 from Sofosbuvir [3, 16]: 27.2
- IC95 Value [3, 16]: 25.4 nM
- IC50 [4, 15]: 5 nM
- Fold Change in IC50 from Sofosbuvir ([4]; genotype 1b, no NS5B mutation): 0.9
- Fold Change in IC95 from Sofosbuvir ([4]; genotype 1b, no NS5B mutation): 22.2
- IC95 Value ([4]; genotype 1b, no NS5B mutation): 28.9 nM
- cross-resistance to C316N mutant [5]: neither 25, 27 nor 5-2 compound showed any evidence of cross-resistance
- IC50 [5, 15]: 3.1 nM
- Fold Change in IC50 from Sofosbuvir ([5]; genotype 1b, NS5B C316N): 23.5
- Fold Change in IC95 from Sofosbuvir ([5]; genotype 1b, NS5B C316N): 28.7
- IC95 Value ([5]; genotype 1b, NS5B C316N): 16.5 nM
- cross-resistance to L159F mutant [6]: neither 25, 27 nor 5-2 compound showed any evidence of cross-resistance
- IC50 [6, 15]: 5.1 nM
- Fold Change in IC50 from Sofosbuvir ([6]; genotype 1a, NS5B L159F): 22.3
- Fold Change in IC95 from Sofosbuvir ([6]; genotype 1a, NS5B L159F): 29.5
- IC95 Value ([6]; genotype 1a, NS5B L159F): 36.2 nM
- cross-resistance to L159F and S282T mutant [7]: neither 25, 27 nor 5-2 compound showed any evidence of cross-resistance
- IC50 [7, 15]: 14.9 nM
- Fold Change in IC50 from Sofosbuvir [7, 17]: 108.4
- Fold Change in IC95 from Sofosbuvir [7, 17]: 119.7
- IC95 Value [7, 17]: 141.6 nM
- IC50 [8, 15]: 3.1 nM
- Fold Change in IC50 from Sofosbuvir ([8]; genotype 2b, no NS5B mutation): 14.4
- Fold Change in IC95 from Sofosbuvir ([8]; genotype 2b, no NS5B mutation): 20.1
- IC95 Value ([8]; genotype 2b, no NS5B mutation): 14.7 nM
- IC50 [9, 15]: 4.5 nM
- Fold Change in IC50 from Sofosbuvir [9, 18]: 27.5
- Fold Change in IC95 from Sofosbuvir [9, 18]: 34.6
- IC95 Value [9, 18]: 23.3 nM
- IC50 [10, 19]: 5.6 nM
- Fold Change in IC50 from Sofosbuvir ([10]; genotype 4d, no NS5B mutation): 16.7
- Fold Change in IC95 from Sofosbuvir ([10]; genotype 4d, no NS5B mutation): 26.6
- IC95 Value ([10]; genotype 4d, no NS5B mutation): 38.4 nM
- IC50 [11, 15]: 2.9 nM
- Fold Change in IC50 from Sofosbuvir ([11]; genotype 2a, no NS5B mutation): 7.9
- Fold Change in IC95 from Sofosbuvir ([11]; genotype 2a, no NS5B mutation): 12.0
- IC95 Value ([11]; genotype 2a, no NS5B mutation): 16.2 nM
- IC50 [12, 15]: 3.6 nM
- Fold Change in IC50 from Sofosbuvir ([12]; genotype 4a, no NS5B mutation): 20.7
- Fold Change in IC95 from Sofosbuvir ([12]; genotype 4a, no NS5B mutation): 17.9
- IC95 Value ([12]; genotype 4a, no NS5B mutation): 38.1 nM
- IC50 [13, 15]: 4.2 nM
- Fold Change in IC50 from Sofosbuvir ([13]; genotype 1a, no NS5B mutation): 15.0
- Fold Change in IC95 from Sofosbuvir ([13]; genotype 1a, no NS5B mutation): 19.3
- IC95 Value ([13]; genotype 1a, no NS5B mutation): 26.4 nM
- EC50 [14]: 5 nM
- predominant metabolite observed in cultured human hepatocytes (human hepatocytes): β-D-2′-deoxy-2′-α-fluoro-2′-β-methyl-guanine triphosphate
- cross-resistance to S282T variant (HCV S282T replicon): neither 25, 27, nor 5-2 compounds showed any evidence of cross-resistance
- IC50 (HCV S282T replicon; [19]): < 1 nM
- Fold Change in IC50 from Sofosbuvir (HCV S282T replicon; NS5B Mutation S282T): >278
- Fold Change in IC95 from Sofosbuvir (HCV S282T replicon; NS5B Mutation S282T): >84.7
- IC95 Value (HCV S282T replicon; NS5B Mutation S282T, transient assay, 96-hr): 11.8 nM

Reference: US12084473B2, “β-D-2′-deoxy-2′-α-fluoro-2′-β-C-substituted-2-modified-N6-substituted purine nucleotides for HCV treatment” (Atea Pharmaceuticals, Inc., priority 2015, dated 2024)
